Drawing on patent US10703733B2, “MCL-1 inhibitors” (Gilead Sciences, Inc., priority 2018, dated 2020), this text covers IC50 and EC50 for 25 compounds.

The term IC50 denotes the concentration that inhibits the measured activity by half. By EC50 is commonly meant the concentration giving half of the maximal effect.

Like-named read-outs stand apart in the source and are kept apart here.

Experiment [1] deals with MCL-1/Bim interaction (recombinant human MCL-1 protein, residues 171-327; biotinylated human Bim peptide, residues 51-76) (Homo sapiens (Human), UniProt Q07820). The experiment can be described thus: MCL-1/Bim Binding AlphaLISA Assay. Particulars: 0.0625 nM 6xHis-Mcl-1 (171-327), 0.0625 nM biotinylated-Bim peptide. The method, boiled down: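 Compounds first sat 1 h with MCL-1 (171-327, 0.0625 nM), followed by 2 h with biotin-Bim 51-76 (0.0625 nM), then sequential 1 h anti-His acceptor and streptavidin donor bead steps; buffer Hepes pH 7.5 with NaCl, Brij 35, DTT, BSA. AlphaScreen signal converted to % inhibition using DMSO (negative) and protein/peptide-free (positive) controls.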
A general note: In Alpha technology, singlet oxygen from a donor bead excites a nearby acceptor bead.

A further experiment has as its system SKBR3 cells. The experiment can be described thus: SKBR3 Cell Viability Assay (CellTiter Glo). It is filed as cell-based. Particulars: CellTiter Glo luminescence, read-out: MCL-1 CV SKBR3 EC50. A digest of the protocol: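 Viability read as CellTiter Glo luminescence after 72 h of compound exposure at 37° C./5% CO2, using 6,000 SKBR3 cells per well in McCoy 5A with 10% FBS. Percent inhibition scaled between DMSO wells and 10 μM puromycin wells.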

Sequence of MCL-1/Bim interaction (recombinant human MCL-1 protein, residues 171-327; biotinylated human Bim peptide, residues 51-76) (Q07820 171-327): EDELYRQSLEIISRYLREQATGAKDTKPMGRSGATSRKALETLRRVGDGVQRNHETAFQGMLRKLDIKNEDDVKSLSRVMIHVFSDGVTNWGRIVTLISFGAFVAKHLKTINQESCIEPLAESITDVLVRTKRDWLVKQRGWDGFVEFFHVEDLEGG

With `COc1nn(C)cc1C(=O)N[S@@]1(=O)=NC(=O)c2ccc3c(c2)N(C[C@@H]2CC[C@H]2[C@H](O)/C=C/C[C@H](C)[C@H]1C)C[C@@]1(CCCc2cc(Cl)ccc21)CO3` [Example 353], the half-maximal inhibitory concentration (IC50) in experiment [1] came out at 0.103 nM. In addition, the EC50 with SKBR3 cells (Homo sapiens, SK-BR-3, 72 h) was found to be 257 nM.

For `CO[C@H]1/C=C/C[C@H](C)C[S@@](=O)(NC(=O)N2CC(OC(F)F)C2)=NC(=O)c2ccc3c(c2)N(C[C@@H]2CC[C@H]21)C[C@@]1(CCCc2cc(Cl)ccc21)CO3` [Example 354], the IC50 in experiment [1] was determined as 0.039 nM. In addition, the EC50 in the experiment on SKBR3 cells (Homo sapiens, SK-BR-3, 72 h) was 36.9 nM.

Take `CO[C@H]1/C=C/C[C@H](C)C[S@@](=O)(NC(=O)N2CC(CC(F)F)C2)=NC(=O)c2ccc3c(c2)N(C[C@@H]2CC[C@H]21)C[C@@]1(CCCc2cc(Cl)ccc21)CO3` [Example 355]: in experiment [1], the half-inhibitory concentration (IC50) was 0.062 nM. The EC50 in the experiment with SKBR3 cells (Homo sapiens, SK-BR-3, 72 h) turned out to be 67.4 nM.

Consider `CO[C@H]1/C=C/C[C@H](C)C[S@@](=O)(NC(=O)c2cn(C)nc2OCC2OCCO2)=NC(=O)c2ccc3c(c2)N(C[C@@H]2CC[C@H]21)C[C@@]1(CCCc2cc(Cl)ccc21)CO3` [Example 356], for which, in experiment [1], the IC50 amounted to 0.081 nM. The EC50 with SKBR3 cells (Homo sapiens, SK-BR-3, 72 h) turned out to be 233 nM.

As to `CO[C@H]1/C=C/C[C@H](C)C[S@@](=O)(NC(=O)N[C@H]2C[C@H](F)C2)=NC(=O)c2ccc3c(c2)N(C[C@@H]2CC[C@H]21)C[C@@]1(CCCc2cc(Cl)ccc21)CO3` [Example 357], in experiment [1], the IC50 was determined as 0.113 nM. Moreover, the EC50 in the experiment with SKBR3 cells (Homo sapiens, SK-BR-3, 72 h) worked out at 206 nM.

Turning to `COC(=O)c1cc(C(=O)N[S@@]2(=O)=NC(=O)c3ccc4c(c3)N(C[C@@H]3CC[C@H]3[C@@H](OC)/C=C/C[C@H](C)C2)C[C@@]2(CCCc3cc(Cl)ccc32)CO4)cn1C` [Example 358], in experiment [1], the IC50 amounted to 0.114 nM. The EC50 in the experiment with SKBR3 cells (Homo sapiens, SK-BR-3, 72 h) stood at 95.1 nM.

As for `COc1cn(C)cc1C(=O)N[S@@]1(=O)=NC(=O)c2ccc3c(c2)N(C[C@@H]2CC[C@H]2[C@@H](O)/C=C/C[C@H](C)[C@H]1C)C[C@@]1(CCCc2cc(Cl)ccc21)CO3` [Example 359], the IC50 in experiment [1] came to 0.038 nM. Moreover, in the experiment with SKBR3 cells (72 hours), the EC50 stood at 19 nM.

On to `CO[C@H]1/C=C/C[C@H](C)C[S@@](=O)(NC(=O)N[C@H]2C[C@H](OC(=O)N(C)C)C2)=NC(=O)c2ccc3c(c2)N(C[C@@H]2CC[C@H]21)C[C@@]1(CCCc2cc(Cl)ccc21)CO3` [Example 360], for which, in experiment [1], the half-maximal inhibitory concentration (IC50) is 0.052 nM. For the same compound, the EC50 in the experiment with SKBR3 cells (Homo sapiens, SK-BR-3, 72 h) was determined as 139 nM.

For `CO[C@H]1/C=C/C[C@H](C)C[S@@](=O)(NC(=O)NC23CC(OC)(C2)C3)=NC(=O)c2ccc3c(c2)N(C[C@@H]2CC[C@H]21)C[C@@]1(CCCc2cc(Cl)ccc21)CO3` [Example 361], the IC50 in experiment [1] was found to be 0.055 nM. Also, the EC50 with SKBR3 cells (Homo sapiens, SK-BR-3, 72 h) was 44 nM.

As to `COC1CN(C(=O)N[S@@]2(=O)=NC(=O)c3ccc4c(c3)N(C[C@@H]3CC[C@H]3[C@@H](OC)/C=C/C[C@H](C)C2)C[C@@]2(CCCc3cc(Cl)ccc32)CO4)C1` [Example 362], the IC50 in experiment [1] stood at 0.024 nM. Also, the EC50 in the experiment with SKBR3 cells (Homo sapiens, SK-BR-3, 72 h) was determined as 17.3 nM.

Turning to `CO[C@H]1/C=C/C[C@H](C)C[S@@](=O)(NC(=O)N2CC(C)(OC)C2)=NC(=O)c2ccc3c(c2)N(C[C@@H]2CC[C@H]21)C[C@@]1(CCCc2cc(Cl)ccc21)CO3` [Example 363], the IC50 in experiment [1] turned out to be 0.042 nM. In the experiment with SKBR3 cells (Homo sapiens, SK-BR-3, 72 h), the EC50 came to 46.5 nM.

`CO[C@H]1/C=C/C[C@H](C)C[S@@](=O)(NC(=O)N[C@@H]2C[C@H]2F)=NC(=O)c2ccc3c(c2)N(C[C@@H]2CC[C@H]21)C[C@@]1(CCCc2cc(Cl)ccc21)CO3` [Example 364]: in experiment [1], the IC50 turned out to be 0.064 nM. For the same compound, the EC50 in the experiment with SKBR3 cells (Homo sapiens, SK-BR-3, 72 h) came out at 259 nM.

Regarding `COc1nn(C)cc1C(=O)N[S@@]1(=O)=NC(=O)c2ccc3c(c2)N(C[C@@H]2CC[C@H]2[C@@H](OCCN2CCOCC2)/C=C/C[C@H](C)C1)C[C@@]1(CCCc2cc(Cl)ccc21)CO3` [Example 366], the IC50 in experiment [1] was found to be 0.086 nM. In the experiment with SKBR3 cells (Homo sapiens, SK-BR-3, 72 h), the EC50 came to 53.1 nM.

`CCO[C@H]1/C=C/C[C@H](C)C[S@@](=O)(NC(=O)c2cn(C)nc2OC)=NC(=O)c2ccc3c(c2)N(C[C@@H]2CC[C@H]21)C[C@@]1(CCCc2cc(Cl)ccc21)CO3` [Example 367]: the IC50 in experiment [1] came to 0.063 nM. Further, in the experiment with SKBR3 cells (Homo sapiens, SK-BR-3, 72 h), the EC50 stood at 101 nM.

Regarding `COc1nn(C)cc1C(=O)N[S@@]1(=O)=NC(=O)c2ccc3c(c2)N(C[C@@H]2CC[C@H]2[C@@H](OC)/C=C/[C@H](O)[C@H](C)[C@H]1C)C[C@@]1(CCCc2cc(Cl)ccc21)CO3` [Example 374], in experiment [1], the IC50 is 0.058 nM. The EC50 with SKBR3 cells (Homo sapiens, SK-BR-3, 72 h) came out at 47.5 nM.

With `COC1CN(C(=O)N[S@@]2(=O)=NC(=O)c3ccc4c(c3)N(C[C@@H]3CC[C@H]3[C@@H](OC)/C=C/[C@H](OC)[C@H](C)C2)C[C@@]2(CCCc3cc(Cl)ccc32)CO4)C1` [Example 375], in experiment [1], the IC50 is 0.046 nM. The EC50 in the experiment on SKBR3 cells (Homo sapiens, SK-BR-3, 72 h) is 22.4 nM.

On to `COCCOCCO[C@H]1/C=C/[C@H](OC)[C@@H]2CC[C@H]2CN2C[C@@]3(CCCc4cc(Cl)ccc43)COc3ccc(cc32)C(=O)N=[S@](=O)(NC(=O)c2cn(C)nc2OC)C[C@H]1C` [Example 376], for which the IC50 in experiment [1] was found to be 0.031 nM. In addition, the EC50 in the experiment with SKBR3 cells (Homo sapiens, SK-BR-3, 72 h) was 26.7 nM.

As to `COc1nn(C)cc1C(=O)N[S@@]1(=O)=NC(=O)c2ccc3c(c2)N(C[C@@H]2CC[C@H]2[C@@H](OC)/C=C/[C@H](S(=O)(=O)c2ccc(C)cc2)[C@H](C)C1)C[C@@]1(CCCc2cc(Cl)ccc21)CO3` [Example 377], the IC50 in experiment [1] amounted to 0.106 nM. Further, the concentration giving a half-maximal response (EC50) with SKBR3 cells (72 hours) stood at 34 nM.

For the compound `COC1CN(c2nn(C)cc2C(=O)N[S@@]2(=O)=NC(=O)c3ccc4c(c3)N(C[C@@H]3CC[C@H]3[C@@H](OC)/C=C/C[C@H](C)C2)C[C@@]2(CCCc3cc(Cl)ccc32)CO4)C1` [Example 379], the half-inhibitory concentration (IC50) in experiment [1] was 0.834 nM. The EC50 in the experiment on SKBR3 cells (Homo sapiens, SK-BR-3, 72 h) turned out to be 1660 nM.

Turning to `COC1CCN(c2nn(C)cc2C(=O)N[S@@]2(=O)=NC(=O)c3ccc4c(c3)N(C[C@@H]3CC[C@H]3[C@@H](OC)/C=C/C[C@H](C)C2)C[C@@]2(CCCc3cc(Cl)ccc32)CO4)CC1` [Example 380], the IC50 in experiment [1] amounted to 4.54 nM. The EC50 with SKBR3 cells (Homo sapiens, SK-BR-3, 72 h) is 3400 nM.

For `COc1nn(C)cc1C(=O)N[S@@]1(=O)=NC(=O)c2ccc3c(c2)N(C[C@@H]2CC[C@H]2[C@@H](OC(=O)CC(C)C)/C=C/C[C@H](C)C1)C[C@@]1(CCCc2cc(Cl)ccc21)CO3` [Example 381], in experiment [1], the IC50 came out at 0.769 nM. In addition, in the experiment with SKBR3 cells (Homo sapiens, SK-BR-3, 72 h), the EC50 stood at 534 nM.

Take `CO[C@H]1/C=C/C[C@H](C)C[S@@](=O)(NC(=O)N2CCN(C(=O)OC(C)(C)C)[C@H](C)C2)=NC(=O)c2ccc3c(c2)N(C[C@@H]2CC[C@H]21)C[C@@]1(CCCc2cc(Cl)ccc21)CO3` [Example 382]: the IC50 in experiment [1] worked out at 1.4 nM. For the same compound, the EC50 in the experiment with SKBR3 cells (Homo sapiens, SK-BR-3, 72 h) was 562 nM.

As for `COC(=O)c1ccn2c1CN(C(=O)N[S@@]1(=O)=NC(=O)c3ccc4c(c3)N(C[C@@H]3CC[C@H]3[C@@H](OC)/C=C/C[C@H](C)C1)C[C@@]1(CCCc3cc(Cl)ccc31)CO4)CC2` [Example 383], in experiment [1], the concentration for half-maximal inhibition (IC50) came out at 0.659 nM. In addition, in the experiment on SKBR3 cells (Homo sapiens, SK-BR-3, 72 h), the concentration for a half-maximal effect (EC50) worked out at 1200 nM.

As to `COc1nn(C)cc1C(=O)N[S@@]1(=O)=NC(=O)c2ccc3c(c2)N(C[C@@H]2CC[C@H]2[C@@H](OC(=O)OC(C)C)/C=C/C[C@H](C)C1)C[C@@]1(CCCc2cc(Cl)ccc21)CO3` [Example 384], the IC50 in experiment [1] was 0.34 nM. In addition, the EC50 in the experiment with SKBR3 cells (Homo sapiens, SK-BR-3, 72 h) was 154 nM.

Take `CO[C@H]1/C=C/C[C@H](C)C[S@@](=O)(NC(=O)N2CC(OC(=O)N3CCCCC3)C2)=NC(=O)c2ccc3c(c2)N(C[C@@H]2CC[C@H]21)C[C@@]1(CCCc2cc(Cl)ccc21)CO3` [Example 385]: the IC50 in experiment [1] was 0.128 nM. For the same compound, the EC50 in the experiment with SKBR3 cells (Homo sapiens, SK-BR-3, 72 h) turned out to be 222 nM.
